Drawing on ChEMBL document CHEMBL1134700, “Design, synthesis and characterisation of a peptide with oxaloacetate decarboxylase activity” (Bioorg Med Chem Lett, 2001), this text covers k cat/Km, k cat and Km for five compounds.

“And” between values parts separate entries of the source, which are not always exact repeats. Equal entries are not always repeated.

The nature of data set [1]: Catalytic efficiency is the ratio of (kcat/KM).
Data set [2] addresses L-lactate dehydrogenase B chain (Sus scrofa) (UniProt P00336). Briefly: (§1) Decarboxylation of oxaloacetate to produce pyruvate was measured bythe conversion of NADH to NAD+ in the lactate dehydrogenase mediated transformation of pyruvate to lactate at a uM.
Data set [3] has the same target. Briefly: Decarboxylation of oxaloacetate to produce pyruvate was measured by the conversion of NADH to NAD+ in the lactate dehydrogenase mediated transformation of pyruvate to lactate at a uM.
Data set [4] is described as follows: Decarboxylation of oxaloacetate to produce pyruvate was measured bythe conversion of NADH to NAD+ in the lactate dehydrogenase mediated transformation of pyruvate to lactate; expressed as Catalytic efficiency as the ratio of (kcat/KM).
Data set [5] relates to CC(=O)NCC(=O)N1CCC[C@H]1C(=O)N[C@@H](CO)C(=O)N[C@@H](CCC(N)=O)C(=O)N1CCC[C@H]1C(=O)N[C@H](C(=O)N[C@@H](Cc1ccc(O)cc1)C(=O)N1CCC[C@H]1C(=O)NCC(=O)N[C@@H](CC(=O)O)C(=O)N[C@@H](CC(=O)O)C(=O)N[C@@H](C)C(=O)N1CCC[C@H]1C(=O)N[C@H](C(=O)N[C@@H](CCC(=O)O)C(=O)N[C@@H](CC(=O)O)C(=O)N[C@@H](CC(C)C)C(=O)N[C@@H](CCCCN)C(=O)N[C@@H](CCCN=C(N)N)C(=O)N[C@@H](Cc1ccccc1)C(=O)N[C@@H](Cc1ccc(O)cc1)C(=O)N[C@@H](CCCCN)C(=O)N[C@@H](CC(N)=O)C(=O)N[C@@H](CC(C)C)C(=O)N[C@@H](CCCCN)C(=O)N[C@@H](CCC(N)=O)C(=O)N[C@@H](Cc1ccc(O)cc1)C(=O)N[C@@H](CC(C)C)C(=O)N[C@@H](CCCCN)C(=O)N[C@H](C(=O)N[C@H](C(N)=O)C(C)C)C(C)C)C(C)C)[C@@H](C)O. Described as §1.

Data set [6] has as its system CC(C)C[C@H](NC(=O)[C@H](C)NC(=O)[C@H](CCCCN)NC(=O)[C@H](CC(C)C)NC(=O)[C@H](CC(C)C)NC(=O)[C@@H](CCCCN)NC(=O)[C@H](C)NC(=O)[C@@H](N)CC(C)C)C(=O)N[C@@H](C)C(=O)N[C@@H](CCCCN)C(=O)N[C@@H](CC(C)C)C(=O)N[C@@H](CC(C)C)C(=O)N[C@@H](CCCCN)C(=O)N[C@@H](CCCCN)C(N)=O. The description is as §1.

Chain of L-lactate dehydrogenase B chain (Sus scrofa) (P00336 whole entry): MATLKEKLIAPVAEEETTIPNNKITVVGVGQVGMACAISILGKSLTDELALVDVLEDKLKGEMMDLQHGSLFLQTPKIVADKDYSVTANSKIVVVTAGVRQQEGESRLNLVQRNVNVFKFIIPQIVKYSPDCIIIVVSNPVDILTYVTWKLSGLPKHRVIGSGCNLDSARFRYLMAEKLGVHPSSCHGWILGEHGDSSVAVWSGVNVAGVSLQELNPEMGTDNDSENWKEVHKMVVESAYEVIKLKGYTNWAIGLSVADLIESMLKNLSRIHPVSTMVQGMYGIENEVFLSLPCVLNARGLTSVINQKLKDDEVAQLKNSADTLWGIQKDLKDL
Chain of L-lactate dehydrogenase B chain (Sus scrofa), P00336 (P00336 whole entry): as above

`CC(C)C[C@H](NC(=O)[C@H](C)NC(=O)[C@H](CCCCN)NC(=O)[C@H](CC(C)C)NC(=O)[C@H](CC(C)C)NC(=O)[C@@H](CCCCN)NC(=O)[C@H](C)NC(=O)[C@@H](N)CC(C)C)C(=O)N[C@@H](C)C(=O)N[C@@H](CCCCN)C(=O)N[C@@H](CC(C)C)C(=O)N[C@@H](CC(C)C)C(=O)N[C@@H](CCCCN)C(=O)N[C@@H](CCCCN)C(N)=O`: in data set [1], the k cat/Km is 0.153 M⁻¹ s⁻¹ and 0.071 M⁻¹ s⁻¹. Besides, the k cat in data set [2] was 0.0075 s⁻¹; in data set [3] it was 0.015 s⁻¹.

Ac-GPSQPTYPGDDAPVEDLKRFYKNLKQYLKVV-NH2: the k cat/Km in data set [1] is 1.74 M⁻¹ s⁻¹. In data set [2], this compound returned a k cat of 0.086 s⁻¹.

As for `NCC(N)=O`, in data set [4], the k cat/Km was 0.011 M⁻¹ s⁻¹.

The term Km denotes the concentration of substrate that gives half-maximal velocity. In the case of “L-lactate dehydrogenase B chain (Sus scrofa), P00336”, the Km was 49.4 mM in data set [5] and 48 mM in data set [6].

`CCCCN`: the k cat/Km in data set [4] came to 0.0005 M⁻¹ s⁻¹.
